Source: paper PMC6199744, “Development of Chemical Proteomics for the Folateome and Analysis of the Kinetoplastid Folateome” (ACS Infectious Diseases, 2018)

Columns and labels:
Type in all cases: binding
[1] = biological target: T1, HeLa cell extract proteins (Homo sapiens, UniProt P11940); settings: HeLa; protein PABPC1
T1 construct: endogenous in cells; host or cells: HeLa cell extract

[2] = biological target: T2, HeLa cell extract proteins (Homo sapiens, UniProt Q8N5P1); settings: HeLa; protein ZC3H8 (ZINC FINGER CCCH DOMAIN-CONTAINING PROTEIN 8)
T2 construct: endogenous in cells; host or cells: HeLa cell extract
T2 sequence (Q8N5P1 1-291): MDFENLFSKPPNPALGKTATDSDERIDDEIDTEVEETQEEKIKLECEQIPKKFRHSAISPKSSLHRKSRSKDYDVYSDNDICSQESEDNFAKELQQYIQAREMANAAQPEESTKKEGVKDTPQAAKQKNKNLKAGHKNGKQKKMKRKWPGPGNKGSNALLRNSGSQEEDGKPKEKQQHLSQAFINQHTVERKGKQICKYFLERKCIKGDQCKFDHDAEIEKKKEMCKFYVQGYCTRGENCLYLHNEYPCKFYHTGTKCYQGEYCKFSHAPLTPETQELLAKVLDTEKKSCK

[3] = biological target: T3, HeLa cell extract proteins (Homo sapiens, UniProt Q13263); settings: protein TRIM28; HeLa
T3 construct: endogenous in cells; host or cells: HeLa cell extract

[4] = biological target: T4, HeLa cell extract proteins (Homo sapiens, UniProt P35579); settings: HeLa; protein MYH9 (MYOSIN-9)
T4 construct: endogenous in cells; host or cells: HeLa cell extract

[5] = biological target: T5, HeLa cell extract proteins (Homo sapiens, UniProt Q96EY1); settings: protein DNAJA3; HeLa
T5 construct: endogenous in cells; host or cells: HeLa cell extract
T5 sequence (Q96EY1 1-480): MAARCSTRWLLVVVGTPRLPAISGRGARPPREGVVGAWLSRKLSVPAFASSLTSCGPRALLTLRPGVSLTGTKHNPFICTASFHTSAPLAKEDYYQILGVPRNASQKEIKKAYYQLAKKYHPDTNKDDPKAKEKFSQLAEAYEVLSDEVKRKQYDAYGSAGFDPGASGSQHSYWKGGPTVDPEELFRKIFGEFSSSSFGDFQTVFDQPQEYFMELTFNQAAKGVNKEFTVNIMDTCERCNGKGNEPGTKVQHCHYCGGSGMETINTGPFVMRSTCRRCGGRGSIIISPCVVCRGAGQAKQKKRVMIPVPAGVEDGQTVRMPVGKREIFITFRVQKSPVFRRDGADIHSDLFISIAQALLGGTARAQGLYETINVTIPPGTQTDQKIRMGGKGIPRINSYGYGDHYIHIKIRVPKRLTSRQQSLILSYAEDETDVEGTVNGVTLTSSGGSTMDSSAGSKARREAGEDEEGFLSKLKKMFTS

[6] = biological target: T6, HeLa cell extract proteins (Homo sapiens, UniProt P50454); settings: HeLa; protein SERPINH1
T6 construct: endogenous in cells; host or cells: HeLa cell extract
T6 sequence (P50454 19-418): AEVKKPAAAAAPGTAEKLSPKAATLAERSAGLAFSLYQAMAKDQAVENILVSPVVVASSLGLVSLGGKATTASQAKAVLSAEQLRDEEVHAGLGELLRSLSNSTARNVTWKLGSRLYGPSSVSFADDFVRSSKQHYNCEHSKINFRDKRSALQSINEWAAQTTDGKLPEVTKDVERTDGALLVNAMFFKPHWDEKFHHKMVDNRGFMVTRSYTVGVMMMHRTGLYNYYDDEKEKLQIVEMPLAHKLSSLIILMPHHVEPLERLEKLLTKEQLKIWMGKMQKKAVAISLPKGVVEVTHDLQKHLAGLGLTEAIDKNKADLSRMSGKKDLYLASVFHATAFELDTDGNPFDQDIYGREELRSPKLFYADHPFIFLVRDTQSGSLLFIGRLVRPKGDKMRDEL

[7] = biological target: T7, HeLa cell extract proteins (Homo sapiens, UniProt Q15365); settings: HeLa; protein PCBP1
T7 construct: endogenous in cells; host or cells: HeLa cell extract

[8] = biological target: T8, HeLa cell extract proteins (Homo sapiens, UniProt P35270); settings: HeLa; protein SPR
T8 construct: endogenous in cells; host or cells: HeLa cell extract

[9] = biological target: T9, HeLa cell extract proteins (Homo sapiens, UniProt P78527); settings: HeLa; protein PRKDC (ISOFORM 1 OF DNA-DEPENDENT PROTEIN KINASE CATALYTIC SUBUNIT)
T9 construct: endogenous in cells; host or cells: HeLa cell extract

[10] = biological target: T10, HeLa cell extract proteins (Homo sapiens, UniProt Q92947); settings: HeLa; captured protein GCDH
T10 construct: endogenous in cells; host or cells: HeLa cell extract
T10 sequence (Q92947 45-438): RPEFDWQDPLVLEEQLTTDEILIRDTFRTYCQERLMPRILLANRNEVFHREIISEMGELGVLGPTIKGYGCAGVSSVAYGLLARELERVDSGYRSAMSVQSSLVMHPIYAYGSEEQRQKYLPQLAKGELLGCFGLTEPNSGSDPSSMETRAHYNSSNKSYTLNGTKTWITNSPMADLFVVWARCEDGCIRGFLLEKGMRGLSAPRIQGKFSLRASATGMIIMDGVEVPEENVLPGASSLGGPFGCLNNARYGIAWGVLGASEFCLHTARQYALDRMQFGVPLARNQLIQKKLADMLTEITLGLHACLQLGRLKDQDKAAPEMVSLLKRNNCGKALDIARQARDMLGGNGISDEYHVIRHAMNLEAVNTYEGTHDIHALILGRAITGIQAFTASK

[11] = biological target: T11, HeLa cell extract proteins (Homo sapiens, UniProt P52597); settings: HeLa; captured protein HNRNPF
T11 construct: endogenous in cells; host or cells: HeLa cell extract
T11 sequence (P52597 1-415): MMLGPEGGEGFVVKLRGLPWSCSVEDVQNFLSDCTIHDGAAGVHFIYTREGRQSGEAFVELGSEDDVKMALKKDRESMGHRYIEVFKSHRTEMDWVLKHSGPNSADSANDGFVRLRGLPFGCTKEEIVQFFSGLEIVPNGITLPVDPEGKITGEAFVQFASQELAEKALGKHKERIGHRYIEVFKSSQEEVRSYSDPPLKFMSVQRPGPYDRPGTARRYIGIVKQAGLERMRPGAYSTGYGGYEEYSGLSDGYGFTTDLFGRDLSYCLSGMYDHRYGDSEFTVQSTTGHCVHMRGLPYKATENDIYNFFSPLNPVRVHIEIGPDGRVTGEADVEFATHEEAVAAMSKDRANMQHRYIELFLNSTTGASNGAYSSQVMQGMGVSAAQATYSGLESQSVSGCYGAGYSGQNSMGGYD

[12] = biological target: T12, HeLa cell extract proteins (Homo sapiens, UniProt P14678); settings: HeLa; captured protein SNRPB
T12 construct: endogenous in cells; host or cells: HeLa cell extract

[13] = biological target: T13, HeLa cell extract proteins (Homo sapiens, UniProt P06753); settings: protein TPM3; HeLa
T13 construct: endogenous in cells; host or cells: HeLa cell extract

[14] = biological target: T14, HeLa cell extract proteins (Homo sapiens, UniProt Q14258); settings: HeLa; captured protein TRIM25
T14 construct: endogenous in cells; host or cells: HeLa cell extract

[15] = biological target: T15, HeLa cell extract proteins (Homo sapiens, UniProt P30040); settings: protein ERP29; HeLa
T15 construct: endogenous in cells; host or cells: HeLa cell extract

T13 sequence (P06753 whole entry): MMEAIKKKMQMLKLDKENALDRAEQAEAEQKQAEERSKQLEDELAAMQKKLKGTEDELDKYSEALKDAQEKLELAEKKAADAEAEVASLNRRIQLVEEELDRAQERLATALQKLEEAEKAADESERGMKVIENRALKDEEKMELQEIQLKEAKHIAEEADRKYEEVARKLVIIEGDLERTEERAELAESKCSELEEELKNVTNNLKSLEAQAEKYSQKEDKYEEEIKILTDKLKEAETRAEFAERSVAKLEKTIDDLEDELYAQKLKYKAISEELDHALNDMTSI
T14 sequence (Q14258 whole entry): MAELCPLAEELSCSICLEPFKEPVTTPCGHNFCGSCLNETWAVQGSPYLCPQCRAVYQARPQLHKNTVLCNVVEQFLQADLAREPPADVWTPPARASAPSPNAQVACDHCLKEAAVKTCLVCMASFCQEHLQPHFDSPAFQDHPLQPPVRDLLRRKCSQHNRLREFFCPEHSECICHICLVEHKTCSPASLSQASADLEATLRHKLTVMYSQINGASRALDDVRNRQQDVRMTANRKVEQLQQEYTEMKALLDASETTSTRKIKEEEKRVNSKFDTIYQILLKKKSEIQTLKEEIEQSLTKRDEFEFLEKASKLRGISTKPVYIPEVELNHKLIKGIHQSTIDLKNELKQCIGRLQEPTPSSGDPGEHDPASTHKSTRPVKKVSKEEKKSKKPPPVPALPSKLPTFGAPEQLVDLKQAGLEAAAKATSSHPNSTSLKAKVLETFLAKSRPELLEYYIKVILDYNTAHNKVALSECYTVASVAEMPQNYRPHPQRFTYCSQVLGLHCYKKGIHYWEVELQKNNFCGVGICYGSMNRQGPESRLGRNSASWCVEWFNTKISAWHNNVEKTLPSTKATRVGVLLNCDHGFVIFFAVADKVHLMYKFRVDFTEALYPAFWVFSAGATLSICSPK
T4 sequence (P35579 whole entry): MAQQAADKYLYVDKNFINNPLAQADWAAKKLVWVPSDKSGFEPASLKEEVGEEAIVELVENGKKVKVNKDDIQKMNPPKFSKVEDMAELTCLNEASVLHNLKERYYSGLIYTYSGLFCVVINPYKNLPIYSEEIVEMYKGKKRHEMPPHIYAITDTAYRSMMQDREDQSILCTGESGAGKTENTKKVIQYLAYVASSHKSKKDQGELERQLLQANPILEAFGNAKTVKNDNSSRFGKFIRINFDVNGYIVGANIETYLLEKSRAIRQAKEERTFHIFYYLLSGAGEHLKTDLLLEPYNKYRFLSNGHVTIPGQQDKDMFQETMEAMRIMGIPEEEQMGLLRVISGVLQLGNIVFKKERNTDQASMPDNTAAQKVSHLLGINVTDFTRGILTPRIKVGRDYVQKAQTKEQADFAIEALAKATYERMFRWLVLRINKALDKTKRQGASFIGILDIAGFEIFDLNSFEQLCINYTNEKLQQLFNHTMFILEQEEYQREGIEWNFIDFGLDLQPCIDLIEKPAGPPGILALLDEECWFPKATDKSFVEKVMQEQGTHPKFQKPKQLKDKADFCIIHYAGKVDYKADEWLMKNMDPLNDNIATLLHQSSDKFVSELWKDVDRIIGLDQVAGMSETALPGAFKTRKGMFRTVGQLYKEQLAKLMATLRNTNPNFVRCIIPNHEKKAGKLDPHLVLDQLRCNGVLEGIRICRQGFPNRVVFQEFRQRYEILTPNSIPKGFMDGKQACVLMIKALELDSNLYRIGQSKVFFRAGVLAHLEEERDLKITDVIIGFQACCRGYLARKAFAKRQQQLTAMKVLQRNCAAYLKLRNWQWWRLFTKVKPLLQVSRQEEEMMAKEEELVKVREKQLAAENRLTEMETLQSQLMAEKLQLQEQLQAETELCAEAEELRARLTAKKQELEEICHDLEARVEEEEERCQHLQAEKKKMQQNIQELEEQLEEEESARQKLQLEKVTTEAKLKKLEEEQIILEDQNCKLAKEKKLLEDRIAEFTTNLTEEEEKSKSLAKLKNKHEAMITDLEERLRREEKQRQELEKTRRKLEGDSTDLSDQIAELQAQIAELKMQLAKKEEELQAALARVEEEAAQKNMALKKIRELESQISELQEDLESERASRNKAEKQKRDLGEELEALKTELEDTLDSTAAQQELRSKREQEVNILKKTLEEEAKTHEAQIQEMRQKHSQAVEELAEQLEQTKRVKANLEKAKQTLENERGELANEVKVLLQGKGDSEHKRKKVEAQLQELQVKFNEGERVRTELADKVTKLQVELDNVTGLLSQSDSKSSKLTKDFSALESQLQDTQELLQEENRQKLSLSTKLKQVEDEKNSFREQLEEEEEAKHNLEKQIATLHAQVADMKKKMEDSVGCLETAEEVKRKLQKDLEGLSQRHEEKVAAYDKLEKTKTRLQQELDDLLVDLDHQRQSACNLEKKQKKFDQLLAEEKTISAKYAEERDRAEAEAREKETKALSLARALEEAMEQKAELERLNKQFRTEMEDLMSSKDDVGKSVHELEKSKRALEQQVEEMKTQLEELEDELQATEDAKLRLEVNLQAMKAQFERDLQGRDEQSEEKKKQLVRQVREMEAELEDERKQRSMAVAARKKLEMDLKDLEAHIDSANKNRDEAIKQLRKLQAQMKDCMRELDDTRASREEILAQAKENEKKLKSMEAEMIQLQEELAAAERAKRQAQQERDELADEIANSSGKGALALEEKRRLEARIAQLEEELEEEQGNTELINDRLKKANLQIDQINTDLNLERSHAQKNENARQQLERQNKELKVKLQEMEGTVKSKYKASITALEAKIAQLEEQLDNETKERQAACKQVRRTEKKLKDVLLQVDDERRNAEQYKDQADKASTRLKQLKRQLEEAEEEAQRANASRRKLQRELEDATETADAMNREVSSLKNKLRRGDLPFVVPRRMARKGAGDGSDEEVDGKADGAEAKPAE
T3 sequence (Q13263 whole entry): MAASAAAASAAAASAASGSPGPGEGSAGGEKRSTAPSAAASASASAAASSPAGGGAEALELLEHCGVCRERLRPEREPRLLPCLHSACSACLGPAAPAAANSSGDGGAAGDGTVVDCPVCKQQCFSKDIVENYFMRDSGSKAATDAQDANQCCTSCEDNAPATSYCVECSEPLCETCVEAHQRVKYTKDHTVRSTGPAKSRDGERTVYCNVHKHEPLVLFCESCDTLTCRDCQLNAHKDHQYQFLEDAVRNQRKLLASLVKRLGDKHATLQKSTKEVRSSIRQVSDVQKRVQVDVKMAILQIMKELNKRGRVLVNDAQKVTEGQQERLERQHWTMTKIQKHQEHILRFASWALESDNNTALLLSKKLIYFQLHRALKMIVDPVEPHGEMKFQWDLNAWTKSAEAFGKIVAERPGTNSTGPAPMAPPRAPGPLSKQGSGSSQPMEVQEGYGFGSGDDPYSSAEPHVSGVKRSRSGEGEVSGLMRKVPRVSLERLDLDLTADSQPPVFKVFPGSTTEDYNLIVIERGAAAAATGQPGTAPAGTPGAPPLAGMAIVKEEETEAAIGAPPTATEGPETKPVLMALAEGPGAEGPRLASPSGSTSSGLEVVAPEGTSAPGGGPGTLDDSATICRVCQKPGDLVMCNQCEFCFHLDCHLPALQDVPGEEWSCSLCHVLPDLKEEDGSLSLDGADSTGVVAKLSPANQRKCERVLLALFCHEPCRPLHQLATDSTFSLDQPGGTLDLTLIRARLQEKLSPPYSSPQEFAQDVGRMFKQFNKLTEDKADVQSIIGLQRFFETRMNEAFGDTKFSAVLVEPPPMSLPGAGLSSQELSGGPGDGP
T8 sequence (P35270 whole entry): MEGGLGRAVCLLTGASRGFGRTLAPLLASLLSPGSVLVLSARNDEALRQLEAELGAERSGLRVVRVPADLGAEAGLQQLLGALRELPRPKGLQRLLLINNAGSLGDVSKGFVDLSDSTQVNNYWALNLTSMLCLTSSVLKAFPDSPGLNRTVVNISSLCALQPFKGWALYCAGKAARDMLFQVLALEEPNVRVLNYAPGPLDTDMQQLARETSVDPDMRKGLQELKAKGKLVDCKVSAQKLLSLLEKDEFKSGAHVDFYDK
T1 sequence (P11940 whole entry): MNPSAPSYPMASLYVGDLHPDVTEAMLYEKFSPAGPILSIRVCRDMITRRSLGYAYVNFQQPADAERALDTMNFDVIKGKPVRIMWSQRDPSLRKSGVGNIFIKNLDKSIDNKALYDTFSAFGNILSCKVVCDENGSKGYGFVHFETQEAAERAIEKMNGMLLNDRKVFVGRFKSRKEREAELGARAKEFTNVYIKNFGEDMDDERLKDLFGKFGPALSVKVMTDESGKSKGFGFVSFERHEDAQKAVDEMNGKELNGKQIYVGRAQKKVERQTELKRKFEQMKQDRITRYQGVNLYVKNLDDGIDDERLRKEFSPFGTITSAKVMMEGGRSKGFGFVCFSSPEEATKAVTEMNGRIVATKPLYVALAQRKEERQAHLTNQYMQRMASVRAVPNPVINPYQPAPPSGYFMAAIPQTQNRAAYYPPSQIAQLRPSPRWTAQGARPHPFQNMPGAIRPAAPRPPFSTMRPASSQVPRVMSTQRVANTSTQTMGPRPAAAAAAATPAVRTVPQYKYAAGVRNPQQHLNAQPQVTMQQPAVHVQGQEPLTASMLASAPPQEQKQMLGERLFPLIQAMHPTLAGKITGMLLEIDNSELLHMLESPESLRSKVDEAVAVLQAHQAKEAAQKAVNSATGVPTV

Compound | fold changes relative to vehicle control [1] | fold changes relative to vehicle control [2] | fold changes relative to vehicle control [3] | fold changes relative to vehicle control [4] | fold changes relative to vehicle control [5] | fold changes relative to vehicle control [6] | fold changes relative to vehicle control [7] | fold changes relative to vehicle control [8] | fold changes relative to vehicle control [9] | fold changes relative to vehicle control [10] | fold changes relative to vehicle control [11] | fold changes relative to vehicle control [12] | fold changes relative to vehicle control [13] | fold changes relative to vehicle control [14] | fold changes relative to vehicle control [15]
NCCOCCOCC(=O)Nc1nc2ncc(CNc3ccc(C(=O)NC(CCC(=O)O)C(=O)O)cc3)nc2c(=O)[nH]1 (stereo not drawn) [compound 6] | 0.97 | 1.04 | 1.02 | 1.44 | 1.2 | 1.21 | 0.94 | 0.92 | 1.17 | 0.62 | 0.92 | 1.16 | 1.18 | 0.98 | 1.24
NCCCNc1ccc(C(=O)NC(CCC(=O)O)C(=O)O)cc1 (stereo not drawn) [compound 7] | 1.05 | 1 | 0.9 | 0.9 | 1.06 | 0.98 | 0.91 | 0.95 | 1.16 | 0.98 | 0.95 | 1.16 | 1.1 | 0.94 | 0.88
